Measured values as given in patent US9216999B2, “Substituted pyrrolo[2,3-h][1,6]naphthyridines and compositions thereof as JAK inhibitors” (priority 2011, dated 2015).

What was measured:
[1] = target: T1, JAK3 (Homo sapiens (Human), UniProt P52333); experiment: JAK3 enzyme assay (Assay Example^b 1)
[2] = target: JAK1 (Homo sapiens (Human), UniProt P23458); experiment: Enzyme assay (Assay Example^a 1), JAK1; assay type: biochemical; conditions: ATP 100 μM
[3] = target: JAK2 (Homo sapiens (Human), UniProt O60674); experiment: Enzyme assay (Assay Example^a 1), JAK2; assay type: biochemical; conditions: ATP 100 μM
[4] = target: T1, JAK3; experiment: Enzyme assay (Assay Example^a 1), JAK3; assay type: biochemical; conditions: ATP 100 μM
[5] = target: Tyk2 (Homo sapiens (Human), UniProt P29597); experiment: Enzyme assay (Assay Example^a 1), Tyk2; assay type: biochemical; conditions: ATP 100 μM
[6] = IC50 (μM) JAK3, Table^b 80, ATP 100 μM

Tyk2, sequence (P29597 whole entry): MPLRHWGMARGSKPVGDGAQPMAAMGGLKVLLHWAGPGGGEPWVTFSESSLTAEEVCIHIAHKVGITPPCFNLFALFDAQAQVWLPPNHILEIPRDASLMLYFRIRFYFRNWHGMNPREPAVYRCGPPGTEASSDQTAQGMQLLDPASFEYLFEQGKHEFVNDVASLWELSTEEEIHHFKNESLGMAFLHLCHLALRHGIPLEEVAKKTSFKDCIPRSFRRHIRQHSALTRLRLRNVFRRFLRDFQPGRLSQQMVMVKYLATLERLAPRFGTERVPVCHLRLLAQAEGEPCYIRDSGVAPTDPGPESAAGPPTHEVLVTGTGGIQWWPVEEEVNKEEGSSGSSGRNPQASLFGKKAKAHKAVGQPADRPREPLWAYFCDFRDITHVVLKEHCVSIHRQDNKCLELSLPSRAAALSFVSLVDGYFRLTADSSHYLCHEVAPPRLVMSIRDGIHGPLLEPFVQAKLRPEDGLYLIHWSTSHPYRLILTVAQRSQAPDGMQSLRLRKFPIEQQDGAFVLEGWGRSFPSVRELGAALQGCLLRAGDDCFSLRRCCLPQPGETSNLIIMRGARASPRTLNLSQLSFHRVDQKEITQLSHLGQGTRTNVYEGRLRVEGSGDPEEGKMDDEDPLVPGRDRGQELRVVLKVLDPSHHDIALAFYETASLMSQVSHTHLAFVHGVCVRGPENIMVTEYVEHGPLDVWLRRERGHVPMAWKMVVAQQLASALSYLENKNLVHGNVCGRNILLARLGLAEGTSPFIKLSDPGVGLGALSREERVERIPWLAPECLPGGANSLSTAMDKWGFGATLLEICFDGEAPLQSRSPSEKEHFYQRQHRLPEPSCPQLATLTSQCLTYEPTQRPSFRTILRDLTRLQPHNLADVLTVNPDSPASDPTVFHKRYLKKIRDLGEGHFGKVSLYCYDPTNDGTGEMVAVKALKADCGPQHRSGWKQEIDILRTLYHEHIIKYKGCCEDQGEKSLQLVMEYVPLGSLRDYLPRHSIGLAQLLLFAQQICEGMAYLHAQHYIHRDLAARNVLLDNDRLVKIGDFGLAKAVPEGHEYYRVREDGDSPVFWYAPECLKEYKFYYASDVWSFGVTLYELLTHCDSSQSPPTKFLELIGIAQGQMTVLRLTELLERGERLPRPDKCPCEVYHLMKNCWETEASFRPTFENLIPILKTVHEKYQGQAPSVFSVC
T1 sequence (P52333 whole entry): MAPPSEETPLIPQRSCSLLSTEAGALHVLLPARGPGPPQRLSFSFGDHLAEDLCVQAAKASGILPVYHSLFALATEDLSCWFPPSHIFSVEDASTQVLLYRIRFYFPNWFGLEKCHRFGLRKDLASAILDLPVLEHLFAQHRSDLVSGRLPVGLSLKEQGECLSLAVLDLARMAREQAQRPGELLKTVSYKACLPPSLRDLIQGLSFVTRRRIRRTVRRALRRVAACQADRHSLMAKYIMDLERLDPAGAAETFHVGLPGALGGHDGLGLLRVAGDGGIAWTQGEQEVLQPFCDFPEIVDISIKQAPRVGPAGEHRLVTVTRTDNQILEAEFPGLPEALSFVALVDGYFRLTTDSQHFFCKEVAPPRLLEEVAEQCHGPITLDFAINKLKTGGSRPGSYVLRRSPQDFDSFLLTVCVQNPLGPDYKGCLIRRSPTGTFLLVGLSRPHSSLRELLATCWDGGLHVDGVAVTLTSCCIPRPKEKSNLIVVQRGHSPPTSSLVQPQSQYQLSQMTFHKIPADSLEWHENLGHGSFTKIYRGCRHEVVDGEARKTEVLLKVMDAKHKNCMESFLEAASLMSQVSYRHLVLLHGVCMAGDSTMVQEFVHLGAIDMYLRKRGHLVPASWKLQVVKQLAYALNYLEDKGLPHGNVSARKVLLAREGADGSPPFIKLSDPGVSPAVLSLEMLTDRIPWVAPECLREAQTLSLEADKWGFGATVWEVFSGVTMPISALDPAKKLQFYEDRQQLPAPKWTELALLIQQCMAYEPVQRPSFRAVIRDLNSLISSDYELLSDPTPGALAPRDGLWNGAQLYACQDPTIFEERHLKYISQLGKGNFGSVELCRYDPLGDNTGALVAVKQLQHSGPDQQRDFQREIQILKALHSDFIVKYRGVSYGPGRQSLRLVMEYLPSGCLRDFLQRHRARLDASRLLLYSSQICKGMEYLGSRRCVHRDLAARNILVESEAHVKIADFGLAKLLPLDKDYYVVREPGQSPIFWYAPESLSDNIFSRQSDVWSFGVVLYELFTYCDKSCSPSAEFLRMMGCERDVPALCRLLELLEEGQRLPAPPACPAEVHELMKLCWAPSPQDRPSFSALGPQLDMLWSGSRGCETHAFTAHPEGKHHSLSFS

Compound | IC50 [1, 6] [µM] | IC50 ([1]; IC50 (μM) JAK3, ATP 100 μM) [µM] | IC50 [2] [µM] | IC50 [3] [µM] | IC50 [4] [µM] | IC50 [5] [µM]
C[C@@H]1CCN(S(=O)(=O)c2ccccc2C#N)C[C@@H]1n1ccc(=O)c2cnc3[nH]ccc3c21 (racemic) [compound 25] | 0.07 |  |  |  |  | 
C[C@@H]1CCN(C(=O)c2ccccc2C(F)(F)F)C[C@@H]1n1ccc(=O)c2cnc3[nH]ccc3c21 (racemic) [compound 30] | > 1 |  |  |  |  | 
C[C@@H]1CCN(C(=O)c2cccc(C(F)(F)F)c2)C[C@@H]1n1ccc(=O)c2cnc3[nH]ccc3c21 (racemic) [compound 31] | > 1 |  |  |  |  | 
C[C@@H]1CCN(C(=O)OCc2ccccc2)C[C@@H]1n1ccc(=O)c2cnc3[nH]ccc3c21 (racemic) [compound 35] | 0.11 |  |  |  |  | 
C[C@@H]1CCN(Cc2cccc(C(F)(F)F)c2)C[C@@H]1n1ccc(=O)c2cnc3[nH]ccc3c21 (racemic) [compound 39] | 0.18 |  |  |  |  | 
CCC(C)CN1CCC(n2c(=O)[nH]c(=O)c3cnc4[nH]ccc4c32)CC1 (racemic) [compound 92] |  | > 1 |  |  |  | 
CC(C#N)n1c(=O)c2cnc3[nH]ccc3c2n(C2CCCCC2)c1=O (racemic) [compound 146] |  | > 1 |  |  |  | 
N#CCC(=O)N(CC(F)(F)F)C[C@H]1CC[C@H](n2c(=O)[nH]c(=O)c3cnc4[nH]ccc4c32)CC1 [Synthetic Example^b 135, 2-Cyano-N-{[trans-4-(2,4-dioxo-2,3,4,7-tetrahydro-1H-pyrrolo[3′,2′:5,6]pyrido[4,3-d]pyrimidin-1-yl)cyclohexyl]methyl}-N-(2,2,2-trifluoroethyl)acetamide] |  | 0.5 |  |  |  | 
O=c1[nH]c(=O)n(C2CCN(Cc3ccc(C(F)(F)F)cc3)CC2)c2c1cnc1[nH]ccc12 [compound 52] | > 1 |  |  |  |  | 
O=c1ccn(C2CCN(Cc3ccccc3)CC2)c2c1cnc1[nH]ccc12 [compound 54] | 0.47 |  |  |  |  | 
CO[C@H]1CC[C@H](n2ccc(=O)c3cnc4[nH]ccc4c32)CC1 [compound 70] | > 1 |  |  |  |  | 
O=c1ccn(C2CCN(Cc3ccc(C(F)(F)F)o3)CC2)c2c1cnc1[nH]ccc12 [compound 71] | 0.46 |  |  |  |  | 
O=c1ccn(C2CCN(Cc3ccc([N+](=O)[O-])o3)CC2)c2c1cnc1[nH]ccc12 [compound 72] | > 1 |  |  |  |  | 
O=c1ccn(C2CCN(Cc3ccc(Cl)c(Cl)c3)CC2)c2c1cnc1[nH]ccc12 [compound 75] | > 1 |  |  |  |  | 
OC1(C(F)(F)F)CN(C[C@H]2CC[C@H](c3nnn4cnc5[nH]ccc5c34)CC2)C1 [compound 425, 1-{[trans-4-(7H-Pyrrolo[3,2-e][1,2,3]triazolo[1,5-c]pyrimidin-1-yl)cyclohexyl]methyl}-3-(trifluoromethyl)azetidin-3-ol] |  |  | 0.0025 | 0.022 | 0.082 | 0.37
O=C(NCC(F)(F)F)C1CN(C[C@H]2CC[C@H](c3nnn4cnc5[nH]ccc5c34)CC2)C1 [compound 426, 1-{[trans-4-(7H-Pyrrolo[3,2-e][1,2,3]triazolo[1,5-c]pyrimidin-1-yl)cyclohexyl]methyl}-N-(2,2,2-trifluoroethyl)azetidine-3-carboxamide] |  |  | 0.011 | 0.062 | 0.87 | 0.58
CS(=O)(=O)NC[C@H]1CC[C@H](c2nnn3cnc4[nH]ccc4c23)CC1 [compound 427, N-{[trans-4-(7H-Pyrrolo[3,2-e][1,2,3]triazolo[1,5-c]pyrimidin-1-yl)cyclohexyl]methyl}methanesulfonamide] |  |  | 0.00016 | 0.0012 | 0.03 | 0.016
CC(C)(C)OC(=O)N1CC(CC#N)(NC[C@H]2CC[C@H](c3nnn4cnc5[nH]ccc5c34)CC2)C1 [compound 428, tert-Butyl 3-({[trans-4-(7H-pyrrolo[3,2-e][1,2,3]triazolo[1,5-c]pyrimidin-1-yl)cyclohexyl]methyl}amino)-3-(cyanomethyl)azetidine-1-carboxylate] |  |  | 0.19 | 0.75 | > 1 | > 1
O/N=C/[C@H]1CC[C@H](c2nnn3cnc4[nH]ccc4c23)CC1 [compound 429, 4-(7H-Pyrrolo[3,2-e][1,2,3]triazolo[1,5-c]pyrimidin-1-yl)cyclohexanecarbaldehyde oxime] |  |  | 0.017 | 0.035 | 0.79 | 0.52
N#C[C@H]1CC[C@H](c2nnn3cnc4[nH]ccc4c23)CC1 [compound 430, trans-4-(7H-Pyrrolo[3,2-e][1,2,3]triazolo[1,5-c]pyrimidin-1-yl)cyclohexanecarbonitrile] |  |  | 0.0086 | 0.049 | > 1 | 0.41
N#CC(C#N)=C[C@H]1CC[C@H](c2nnn3cnc4[nH]ccc4c23)CC1 [compound 431, 2-{[trans-4-(7H-Pyrrolo[3,2-e][1,2,3]triazolo[1,5-c]pyrimidin-1-yl)cyclohexyl]methylene}malononitrile] |  |  | 0.0048 | 0.013 | 0.29 | 0.24
C=C1CCC(c2nnn3cnc4[nH]ccc4c23)CC1 [compound 433, 1-(4-Methylenecyclohexyl)-7H-pyrrolo[3,2-e][1,2,3]triazolo[1,5-c]pyrimidine] |  |  | 0.0081 | 0.027 | 0.71 | 0.12
N#CC=C1CCC(c2nnn3cnc4[nH]ccc4c23)CC1 (centres unmarked) [compound 434, 2-[4-(7H-pyrrolo[3,2-e][1,2,3]triazolo[1,5-c]pyrimidin-1-yl)cyclohexylidene]acetonitrile] |  |  | 0.0023 | 0.014 | 0.49 | 0.034
CCOC(=O)C=C1CCC(c2nnn3cnc4[nH]ccc4c23)CC1 (centres unmarked) [compound 436, ethyl 2-[4-(7H-pyrrolo[3,2-e][1,2,3]triazolo[1,5-c]pyrimidin-1-yl)cyclohexylidene]acetate] |  |  | 0.035 | 0.17 | > 1 | > 1
CC(C#N)=C1CCC(c2nnn3cnc4[nH]ccc4c23)CC1 (centres unmarked) [compound 437, 2-[4-(7H-pyrrolo[3,2-e][1,2,3]triazolo[1,5-c]pyrimidin-1-yl)cyclohexylidene]propanenitrile] |  |  | 0.02 | 0.055 | 0.57 | 0.45
CCOC(=O)CC1CCC(c2nnn3cnc4[nH]ccc4c23)CC1 (centres unmarked) [compound 438, Ethyl 2-[4-(7H-pyrrolo[3,2-e][1,2,3]triazolo[1,5-c]pyrimidin-1-yl)cyclohexyl]acetate] |  |  | 0.017 | 0.044 | 0.34 | 0.58
N#C/C=C/[C@H]1CC[C@H](c2nnn3cnc4[nH]ccc4c23)CC1 [compound 440, (E)-3-[trans-4-(7H-Pyrrolo[3,2-e][1,2,3]triazolo[1,5-c]pyrimidin-1-yl)cyclohexyl]acrylonitrile] |  |  | 0.0053 | 0.031 | 0.54 | 0.14
N#CC1CC12CCC(c1nnn3cnc4[nH]ccc4c13)CC2 (centres unmarked) [compound 444, 6-(7H-Pyrrolo[3,2-e][1,2,3]triazolo[1,5-c]pyrimidin-1-yl)spiro[2.5]octane-1-carbonitrile] |  |  | 0.0034 | 0.009 | 0.25 | 0.045
OC12CC3CC(C1)CC(c1nnn4cnc5[nH]ccc5c14)(C3)C2 [compound 445, 3-(7H-Pyrrolo[3,2-e][1,2,3]triazolo[1,5-c]pyrimidin-1-yl)adamantan-1-ol] |  |  | 0.031 | 0.13 | 0.22 | 0.052
